Source: patent US5817669A, “Compounds, processes for the preparation thereof and anti-tumor agents” (Dainippon Pharmaceutical Co., Ltd., priority 1994, dated 1998)
Converted amounts (≈) assume the structure as drawn. Where a name gives a salt, the structure may show the parent alone. Read-outs that look alike come from different tables or passages of the source.

Columns and labels:
[1] = system: murine P388 lymphocytic leukemia cells; assay: In vitro anti-tumor activity against murine P388 lymphocytic leukemia cells (MTT, 72 h); type: cell-based; conditions: Mus musculus; murine P388 cells, 72 h, MTT; read-out: IC50 (50% proliferation inhibitory concentration)
Protocol: Test compounds were tested for anti-tumor activity according to MTT [3-(4,5-dimethylthiazol-2-yl)-2,5-diphenyltetrazolium bromide] method, using murine P388 lymphocytic leukemia cells. […] The culture medium was centrifuged (4° C., 2,000 rpm for 20 minutes), and thus, the supernatants were removed by suction. Then, 0.1 ml of dimethyl sulfoxide was put in each well to dissolve the formed formazan, and, subsequently, another 0.1 ml of dimethyl sulfoxide was added. The absorbance (OD) of each of the obtained solutions was measured by use of Multiskan Bichromatic (main wavelength 570 nm, sub-wavelength 690 nm). […] IC50 :μg/ml) were calculated by the least squares method.

[2] = system: KB human nasopharynx cancer; assay: In vitro anti-tumor activity against KB human nasopharynx cancer (MTT); type: cell-based; conditions: KB, 72 h, MTT, read-out: IC50
Protocol: (§1) A culture medium containing 500 to 2,000 human cancer cells was put in an amount of 0.1 ml in each well of 96-well plate, and the cells were cultured for 20 hours under a condition of 37° C. and 5% carbon dioxide gas in air. After the culturing, a solution of test compounds of predetermined concentration was added, and then, the cells were cultured for further 72 hours. After the culturing, an MTT (5 mg/ml) solution was added in an amount of 0.01 ml in the respective wells, and the cells were cultured for further 4 hours. The supernatants of the culture medium were removed by suction, and then, 0.1 ml of dimethyl sulfoxide was put in respective well to dissolve the formed formazan, and, moreover, 0.1 ml of dimethyl sulfoxide was added.

HMV2 human melanoma = assay: In vitro anti-tumor activity against HMV-2 human melanoma (MTT); type: cell-based; conditions: HMV-2, 72 h, MTT, read-out: IC50
Protocol: as §1

[3] = system: AZ521 human stomach cancer; assay: In vitro anti-tumor activity against AZ-521 human stomach cancer (MTT); type: cell-based; conditions: AZ-521, 72 h, MTT, read-out: IC50
Protocol: as §1

[4] = system: MKN45 human stomach cancer; assay: In vitro anti-tumor activity against MKN45 human stomach cancer (MTT); type: cell-based; conditions: MKN-45, MKN45, 72 h, MTT, read-out: IC50
Protocol: as §1

[5] = system: WiDr human colorectal cancer; assay: In vitro anti-tumor activity against WiDr human colorectal cancer (MTT); type: cell-based; conditions: 72 h, MTT, read-out: IC50
Protocol: as §1

C33A human cervix cancer = assay: In vitro anti-tumor activity against C-33A human cervix cancer (MTT); type: cell-based; conditions: C-33A, 72 h, MTT, read-out: IC50
Protocol: as §1

A427 human lung cancer = assay: In vitro anti-tumor activity against A-427 human lung cancer (MTT); type: cell-based; conditions: A-427, 72 h, MTT, read-out: IC50
Protocol: as §1

[6] = system: murine P388 lymphocytic leukemia cells; assay: Increases in life span of mice implanted with murine P388 lymphocytic leukemia cells; type: in vivo, SLC: BDF1 mice; conditions: Mus musculus, P388, ip, 720 h, ip
Protocol: 1×10^6 murine P388 lymphocytic leukemia cells were intraperitoneally implanted in each of SLC: BDF1 mice (8 to 10 weeks old, female, 7 animals per one group). A test compound (drug) was either dissolved in 0.1 N--NaOH or suspended in 0.4% carboxymethylcellulose solution, and the resultant solution or suspension was diluted with distilled water or 0.4% carboxymethylcellulose solution so as to give predetermined concentrations for administration. The obtained solution was intraperitoneally (ip) administered twice, namely on the day following the implantation (1st day) and the 5th day, each 0.2 ml. The life and death of the mice were observed over a period of 30 days, and the median survival time (hereinafter referred to as MST) was determined for each group, and, thus, the increase in life span (ILS; %) was calculated according to the following equation:
ILS (%)=[{(MST of the test group)/(MST of the control group)}-1]×100
Drug effect was judged in the following manner, according to the criterion of U.S. National Cancer Institute (NCI):
ILS=75% or higher: ++ (remarkably effective);
20 to 74%: + (effective);
19% or lower: - (ineffective)

[7] = system: colon 26 murine tumor cells; assay: Tumor growth inhibition effect on colon 26 murine tumor cells implanted mice; type: in vivo, SLC: CDF1 mice; conditions: Mus musculus, Colon 26, 504 h, ip, days 1-9, day 21 or 22, read-out: Tumor growth inhibition rate IR (%)
Protocol: A 2% brei of colon 26 murine tumor cells was intracutaneously implanted each 0.1 ml in the abdominal part of SLC: CDF1 female mice (7 to 9 weeks old, 7 animals per one group). […] The obtained solutions were intraperitoneally (ip) administered each 0.2 ml once a day, from the day (1st day) following the implantation to the 9th day. On the 21st or 22nd day after the implantation, tumor weight was estimated from tumor diameters, and thus, the tumor growth inhibition rate (IR %) of the drug administered group in comparison with the control group was calculated according to the following equation. IR (%)=[1-{(MTW in the treated group)/(MTW in the control group)}]×10 0 MTW: mean tumor weight

Acute toxicity = conditions: mouse, in vivo, mice, 14th day
Protocol: Solutions of test compounds in predetermined concentrations were administered (0.1 ml/10 g body weight) to female BALB/c CrSlc mice (5 to 10 animals per one group, 10 weeks old) respectively, and, thus, LD50 values were calculated from the mortalities of the mice on the 14th day after the administration.

[8] = NCI criterion, read-out: Evaluation
[9] = days 1 and 5, in solution, read-out: ILS (%) (in solution)
[10] = days 1 and 5, in suspension, read-out: ILS (%) (in suspension)

Row | Structure (SMILES) | IC50 [1] [µg/mL] | IC50 [2] [µg/mL] | IC50 (HMV2 human melanoma) [µg/mL] | IC50 [3] [µg/mL] | IC50 [4] [µg/mL] | IC50 [5] [µg/mL] | IC50 (C33A human cervix cancer) [µg/mL] | IC50 (A427 human lung cancer) [µg/mL] | ILS at 1.56 mg/kg [6, 8] [%] | ILS at 3.13 mg/kg [6, 8] [%] | ILS at 6.25 mg/kg [6, 8] [%] | ILS at 12.5 mg/kg [6, 8] [%] | ILS at 1.56 mg/kg [6, 9] [%] | ILS at 3.13 mg/kg [6, 9] [%] | ILS at 3.13 mg/kg [6, 10] [%] | ILS at 6.25 mg/kg [6, 9] [%] | ILS at 12.5 mg/kg [6, 9] [%] | ILS at 12.5 mg/kg [6, 10] [%] | also measured
1 | CO[C@@H]1CN(c2ccc3c(=O)c(C(=O)O)cn(-c4nccs4)c3n2)C[C@H]1N (relative stereo) [Compound 2] | 0.0178 (≈ 0.0459 µM) | 0.309 (≈ 0.798 µM) | 0.382 (≈ 0.986 µM) | 0.331 (≈ 0.854 µM) | 0.579 (≈ 1.49 µM) | 1.88 (≈ 4.85 µM) | 0.314 (≈ 0.81 µM) | 0.169 (≈ 0.436 µM) | 20 to 74 | > 75 | > 75 | > 75 | 50 | 88 | 63 | 100 | 125 | 138 | ILS at 25 mg/kg [6, 8]: > 75%; ILS at 50 mg/kg [6, 8]: > 75%; ILS at 25 mg/kg [6, 9]: 213%; ILS at 50 mg/kg [6, 9]: > 275%; ILS at 50 mg/kg [6, 10]: 238%; inhibition in vivo at 12.5 mg/kg ([7]; 12.5 mg/kg once a day): 79%; LD50 at 336 h (Acute toxicity; Intraperitoneal administration (ip)): 135 mg/kg
2 | CN[C@@H]1CN(c2ccc3c(=O)c(C(=O)O)cn(-c4nccs4)c3n2)C[C@H]1C (relative stereo) [Compound 5] | 0.0117 (≈ 0.0304 µM) | 0.0805 (≈ 0.209 µM) | 0.0944 (≈ 0.245 µM) | 0.0433 (≈ 0.112 µM) | 0.0978 (≈ 0.254 µM) | 0.218 (≈ 0.566 µM) | 0.106 (≈ 0.275 µM) | 0.0927 (≈ 0.24 µM) | 20 to 74 | > 75 | > 75 | > 75 | 50 | 113 | 88 | 150 | 188 | 188 | inhibition in vivo at 1.56 mg/kg ([7]; 1.56 mg/kg once a day): 78%; LD50 at 336 h (Acute toxicity; Intravenous administration (iv)): 66.7 mg/kg
3 | COC1CN(c2ccc3c(=O)c(C(=O)O)cn(-c4nccs4)c3n2)CC1N(C)C(=O)[C@H](C)N (stereo partly drawn) [Compound 1-1-3, 7-[trans-3-(N-L-alanylmethylamino)-4-methoxy-1-pyrrolidinyl]-1,4-dihydro-4-oxo-1-(2-thiazolyl)-1,8-naphthyridine-3-carboxylic acid hydrochloride] |  |  |  |  |  |  |  |  |  |  |  |  |  |  |  |  |  |  | solubility (Solubility; 0.1 m phosphate buffer, pH 7.2, aqueous buffer): > 234 mg/mL; solubility relative to that of Compound 1-1 and 3 (Solubility; relative to Compound 1-1 and 3 (Z is hydrogen)): ≥ 10 times; solubility (Solubility; water): > 98.7 mg/mL
